Experimental data from US9708266B2, “Cyclohexyl pyridine derivative” (priority 2014, dated 2017).

Tests used:
Assay type in all cases: in vivo
NK1 receptor = NK1 receptor (Meriones unguiculatus (Mongolian jird) (Gerbillus unguiculatus), UniProt Q5DUB1); test: Effect on GR73632-induced foot-tapping; conditions: male gerbil, 0.1 mg/kg iv, GR73632 icv after four hours
Method: (§1) The test compound solution was prepared by dissolving the test compound in a vehicle (a mixture of 50% N,N-dimethylacetamide (Wako Pure Chemical Industries), 30% propylene glycol (Wako Pure Chemical Industries), 4% 2-hydroxypropyl-3-cyclodextrin (Wako Pure Chemical Industries) and 16% distilled water).
A male gerbil (Japan SLC) was anesthetized with isoflurane, and 0.1 mg/kg of a test compound was administered from the jugular vein. After four hours, GR73632 (5 pmol/5 μl saline), which is an NK1 receptor agonist, was administered into the cerebral ventricle at the part 1 mm lateral to and 4.5 mm below the bregma in the head, under anesthesia with isoflurane. After the administration, the gerbil was moved to an observation cage, and the foot-tapping period during 30 minutes after the recovery of the righting reflex was measured. The foot-tapping inhibition rate (%) of each test compound was calculated by the following equation. Foot-tapping inhibition rate (%)={1−(Foot-tapping period when test compound was administered)/(Foot-tapping period when solvent was administered)}×100 (2) Measurement of Drug Concentrations

[1] = test system: cisplatin-induced acute and delayed emetic response; test: Effect on cisplatin-induced acute and delayed emetic response; conditions: male ferret, 0.01 or 0.1 mg/kg iv, cisplatin 5 mg/kg ip
Method: The vertical axes show the number of retching and vomiting (Retches+Vomits) (the mean+standard error of 3 examples of control group, the mean+standard error of 3 examples of the group intravenously administered with 0.01 mg/kg, and the mean+standard error of 3 examples of the group intravenously administered with 0.1 mg/kg).
Effect on Cisplatin-Induced Acute and Delayed Emetic Response
as §1, with “2-hydroxypropyl-β-cyclodextrin” for “2-hydroxypropyl-3-cyclodextrin”, “water). The vehicle only was administered to the control group.” for “water).”
Under anesthesia with isoflurane, 0.01 mg/kg or 0.1 mg/kg of the test compound was intravenously administered to a male ferret (Marshall BioResources Japan) from the jugular vein. Cisplatin in saline, which was heated to 40-50° C., was intraperitoneally administered at 5 mg/kg one hour after the drug administration.

[2] = Ferret pharmacokinetic test; conditions: male ferret, plasma
Method: Ferret Pharmacokinetic Test
The test compound solution for intravenous administration was prepared by dissolving the test compound in a vehicle (a mixture of 50% N,N-dimethylacetamide (Wako Pure Chemical Industries), 30% propylene glycol (Wako Pure Chemical Industries), 4% 2-hydroxypropyl-β-cyclodextrin (Wako Pure Chemical Industries) and 16% distilled water). As an oral administration solution, the suspension (0.5% methylcelluose) was used.
Under anesthesia with isoflurane, 0.1 mg/kg of the test compound was intravenously administered to a male ferret (Marshall BioResources Japan) from the femoral vein. In the case of oral administration, 1 mg/kg of the test compound was orally administered to an awake animal. After the administration of the test compound, blood samples were taken sequentially from the brachial cephalic vein up to 7 days after the administration. Through a quantitative analysis using liquid chromatography-mass spectrometry (LC/MS), the concentrations of the test compound in the plasma were measured.
In the tables, Ex. No. means the Example number. t1/2, CLtot and Vss are the half-life, the total body clearance and the steady-state volume of distribution, based on the plasma concentrations in the case of intravenous administration, respectively. Cmax, AUC and BA are the maximum plasma test compound concentration, the area under the plasma test compound concentration-time curve within 7 days after the administration and the bioavailability, in the case of oral administration, respectively.

NK1 receptor, sequence (Q5DUB1 whole entry): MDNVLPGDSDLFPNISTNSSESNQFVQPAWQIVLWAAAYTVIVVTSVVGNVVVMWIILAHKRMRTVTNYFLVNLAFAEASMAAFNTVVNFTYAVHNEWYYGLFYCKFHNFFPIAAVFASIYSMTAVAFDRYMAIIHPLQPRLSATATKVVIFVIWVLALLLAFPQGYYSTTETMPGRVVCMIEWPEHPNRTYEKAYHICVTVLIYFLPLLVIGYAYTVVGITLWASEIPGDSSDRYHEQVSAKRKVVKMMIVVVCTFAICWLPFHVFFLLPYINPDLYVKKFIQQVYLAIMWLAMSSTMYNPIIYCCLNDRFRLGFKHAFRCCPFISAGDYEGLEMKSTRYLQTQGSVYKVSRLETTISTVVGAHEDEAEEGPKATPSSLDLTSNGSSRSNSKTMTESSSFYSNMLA

Inhibition (foot-tapping inhibition rate) (NK1 receptor) [%] | SMILES | other results
98 | Cc1cc(F)ccc1-c1cc(C2CCC(C(=O)O)CC2)ncc1N(C)C(=O)C(C)(C)c1cc(C(F)(F)F)cc(C(F)(F)F)c1 (stereo not drawn) [Example 1, 4-[5-{[2-(3,5-Bistrifluoromethylphenyl)-2-methylpropionyl]methylamino}-4-(4-fluoro-2-methylphenyl)pyridin-2-yl]cyclohexanecarboxylic acid] | –
100 | Cc1cc(F)ccc1-c1cc(C2CCCC(CC(=O)O)C2)ncc1N(C)C(=O)C(C)(C)c1cc(C(F)(F)F)cc(C(F)(F)F)c1 (stereo not drawn) [Example 3, {3-[5-{[2-(3,5-Bistrifluoromethylphenyl)-2-methylpropionyl]methylamino}-4-(4-fluoro-2-methylphenyl)pyridin-2-yl]cyclohexyl}acetic acid] | –
77 | Cc1cc(F)ccc1-c1cc(C2(C)CCCC(CC(=O)O)C2)ncc1N(C)C(=O)C(C)(C)c1cc(C(F)(F)F)cc(C(F)(F)F)c1 (stereo not drawn) [Example 4, {3-[5-{[2-(3,5-Bistrifluoromethylphenyl)-2-methylpropionyl]methylamino}-4-(4-fluoro-2-methylphenyl)pyridin-2-yl]-3-methylcyclohexyl}acetic acid] | –
90 | Cc1cc(F)ccc1-c1cc(C2CCC3(CC2)CC3C(=O)O)ncc1N(C)C(=O)C(C)(C)c1cc(C(F)(F)F)cc(C(F)(F)F)c1 (stereo not drawn) [Example 7, 6-[5-{[2-(3,5-Bistrifluoromethylphenyl)-2-methylpropionyl]methylamino}-4-(4-fluoro-2-methylphenyl)pyridin-2-yl]spiro[2.5]octane-1-carboxylic acid] | –
100 | Cc1cc(F)ccc1-c1cc(C2CCC(CC(=O)O)CC2)nc(C#N)c1N(C)C(=O)C(C)(C)c1cc(C(F)(F)F)cc(C(F)(F)F)c1 (stereo not drawn) [Example 8, {4-[5-{[2-(3,5-Bistrifluoromethylphenyl)-2-methylpropionyl]methylamino}-6-cyano-4-(4-fluoro-2-methylphenyl)pyridin-2-yl]cyclohexyl}acetic acid] | –
75 | Cc1ccccc1-c1cc(C2CCC(CC(=O)O)CC2)ncc1N(C)C(=O)C(C)(C)c1cc(C(F)(F)F)cc(C(F)(F)F)c1 (stereo not drawn) [Example 9, {4-[5-{[2-(3,5-Bistrifluoromethylphenyl)-2-methylpropionyl]methylamino}-4-ortho-tolylpyridin-2-yl]-cyclohexyl}acetic acid] | –
97 | Cc1cc(F)ccc1-c1cc(C2CCC(C(C)C(=O)O)CC2)ncc1N(C)C(=O)C(C)(C)c1cc(C(F)(F)F)cc(C(F)(F)F)c1 (stereo not drawn) [Example 10, 2-{4-[5-{[2-(3,5-Bistrifluoromethylphenyl)-2-methylpropionyl]methylamino}-4-(4-fluoro-2-methylphenyl)pyridin-2-yl]cyclohexyl}propionic acid] | –
95 | Cc1cc(F)ccc1-c1cc([C@H]2CC[C@H](C(C)(C)C(=O)O)CC2)ncc1N(C)C(=O)C(C)(C)c1cc(C(F)(F)F)cc(C(F)(F)F)c1 [Example 11, trans-2-{4-[5-{[2-(3,5-Bistrifluoromethylphenyl)-2-methylpropionyl]methylamino}-4-(4-fluoro-2-methylphenyl)pyridin-2-yl]cyclohexyl}-2-methylpropionic acid] | –
100 | Cc1cc(F)ccc1-c1cc([C@H]2CC[C@H](CC(=O)O)CC2)ncc1N(C)C(=O)C(C)(C)c1cc(C(F)(F)F)cc(C(F)(F)F)c1 [Example 13, trans-{4-[5-{[2-(3,5-Bistrifluoromethylphenyl)-2-methylpropionyl]methylamino}-4-(4-fluoro-2-methylphenyl)pyridin-2-yl]cyclohexyl}acetic acid] | number of retching and vomiting, delayed phase ([1]; 24 hours to 72 hours): inhibition of the number of retching and vomiting was observed; number of retching and vomiting, acute phase ([1]; up to 24 hours): inhibition of the number of retching and vomiting was observed; clearance ([2]; 0.1 mg/kg intravenous, read-out: CL tot (total body clearance)): 0.13 mL/min/kg; Vd ([2]; 0.1 mg/kg intravenous, read-out: Vss (steady-state volume of distribution)): 0.401 L/kg; half-life ([2]; 0.1 mg/kg intravenous, read-out: t1/2 (half-life)): 41.5 h; AUC ([2]; 1 mg/kg oral, read-out: AUC (area under the plasma concentration-time curve within 7 days) (converted)): 88200 ng·h/mL; bioavailability ([2]; 1 mg/kg oral, read-out: BA (bioavailability)): 66%; Cmax ([2]; 1 mg/kg oral, read-out: Cmax (maximum plasma test compound concentration)): 1260 ng/mL
99 | Cc1cc(F)ccc1-c1cc([C@H]2CC[C@@H](CC(=O)O)CC2)ncc1N(C)C(=O)C(C)(C)c1cc(C(F)(F)F)cc(C(F)(F)F)c1 [Example 14, cis-{4-[5-{[2-(3,5-bistrifluoromethylphenyl)-2-methylpropionyl]methylamino}-4-(4-fluoro-2-methylphenyl)pyridin-2-yl]cyclohexyl}acetic acid] | –
100 | Cc1cc(F)ccc1-c1cc(C2CCC(C)(CC(=O)O)CC2)ncc1N(C)C(=O)C(C)(C)c1cc(C(F)(F)F)cc(C(F)(F)F)c1 (stereo not drawn) [Example 15, {4-[5-{[2-(3,5-Bistrifluoromethylphenyl)-2-methylpropionyl]methylamino}-4-(4-fluoro-2-methylphenyl)pyridin-2-yl]-1-methylcyclohexyl}acetic acid] | –
93 | Cc1ccccc1-c1cc(C2CCC(CC(=O)O)CC2)nc(C#N)c1N(C)C(=O)C(C)(C)c1cc(C(F)(F)F)cc(C(F)(F)F)c1 (stereo not drawn) [Example 16, [4-(5-{[2-(3,5-Bistrifluoromethylphenyl)-2-methylpropionyl]methylamino}-6-cyano-4-ortho-tolylpyridin-2-yl)cyclohexyl]acetic acid] | –
100 | Cc1cc(F)ccc1-c1cc(C2CCC(CC(=O)O)CC2)nc(C)c1N(C)C(=O)C(C)(C)c1cc(C(F)(F)F)cc(C(F)(F)F)c1 (stereo not drawn) [Example 18, {4-[5-{[2-(3,5-Bistrifluoromethylphenyl)-2-methylpropionyl]methylamino}-4-(4-fluoro-2-methylphenyl)-6-methylpyridin-2-yl]cyclohexyl}acetic acid] | –
95 | Cc1cc(F)ccc1-c1cc(C2CCC(CC(=O)O)CC2)nc(CO)c1N(C)C(=O)C(C)(C)c1cc(C(F)(F)F)cc(C(F)(F)F)c1 (stereo not drawn) [Example 19, {4-[5-{[2-(3,5-Bistrifluoromethylphenyl)-2-methylpropionyl]methylamino}-4-(4-fluoro-2-methylphenyl)-6-hydroxymethylpyridin-2-yl]cyclohexyl}acetic acid] | –
100 | Cc1cc(F)ccc1-c1cc([C@H]2CC[C@H](CC(=O)O)CC2)nc(C#N)c1N(C)C(=O)C(C)(C)c1cc(C(F)(F)F)cc(C(F)(F)F)c1 [Example 20, trans-{4-[5-{[2-(3,5-Bistrifluoromethylphenyl)-2-methylpropionyl]methylamino}-6-cyano-4-(4-fluoro-2-methylphenyl)pyridin-2-yl]cyclohexyl}acetic acid] | –
100 | Cc1cc(F)ccc1-c1cc([C@H]2CC[C@@H](CC(=O)O)CC2)nc(C#N)c1N(C)C(=O)C(C)(C)c1cc(C(F)(F)F)cc(C(F)(F)F)c1 [Example 21, cis-{4-[5-{[2-(3,5-bistrifluoromethylphenyl)-2-methylpropionyl]methylamino}-6-cyano-4-(4-fluoro-2-methylphenyl)pyridin-2-yl]cyclohexyl}acetic acid] | –
